Measured values: DBAASP
≈ marks a conversion by molar mass, not a printed value.

Assays:
Test in all cases: ≥ marks a high value that may be exact or a test limit, other limits are often not marked, values filed in µg/mL are converted to µM
Bacillus subtilis 168 = test system: Bacillus subtilis 168
Escherichia coli B = test system: Escherichia coli B
Pseudomonas aeruginosa = test system: Pseudomonas aeruginosa
Staphylococcus aureus = test system: Staphylococcus aureus
Bacillus subtilis = test system: Bacillus subtilis
Escherichia coli = test system: Escherichia coli
[1] = test system: Bacillus subtilis KCTC 3068
[2] = test system: Escherichia coli KCTC 1682
[3] = test system: Pseudomonas aeruginosa KCTC 1637
[4] = test system: Salmonella typhimurium KCTC 1926
[5] = test system: Staphylococcus aureus KCTC 1621
[6] = test system: Staphylococcus epidermidis KCTC 1917

Row | Compound | MIC (Bacillus subtilis 168) | MIC (Escherichia coli B) | MIC (Pseudomonas aeruginosa) | MIC (Staphylococcus aureus) | MIC (Bacillus subtilis) | MIC (Escherichia coli) | MIC [1] | MIC [2] | MIC [3] | MIC [4] | MIC [5] | MIC [6]
1 | CC[C@H](C)[C@H](NC(=O)[C@H](CCCCN)NC(=O)[C@H](CCCCN)NC(=O)[C@H](Cc1c[nH]c2ccccc12)NC(=O)[C@H](CC(N)=O)NC(=O)[C@@H](N)C(C)C)C(=O)N[C@@H](CC(C)C)C(=O)N[C@@H](C)C(=O)N[C@@H](CCCCN)C(=O)N[C@H](C(=O)N[C@H](C(=O)N[C@@H](CCCCN)C(=O)N[C@H](C(=O)N[C@H](C(=O)N[C@@H](CCCCN)C(N)=O)C(C)C)C(C)C)[C@@H](C)CC)[C@@H](C)CC [VNWKKILAKIIKVVK] | 0.6 µM (≈ 1.07 µg/mL) | 1.4 µM (≈ 2.49 µg/mL) | 27.1 µM (≈ 48.2 µg/mL) | 2.2 µM (≈ 3.91 µg/mL) | – | – | – | – | – | – | – | –
2 | CC[C@H](C)[C@H](NC(=O)[C@H](CCCCN)NC(=O)[C@H](CCCCN)NC(=O)[C@H](Cc1c[nH]c2ccccc12)NC(=O)[C@H](CC(N)=O)NC(=O)[C@@H](N)C(C)C)C(=O)N[C@@H](CC(C)C)C(=O)N[C@@H](C)C(=O)N[C@@H](CCCCN)C(=O)N[C@H](C(=O)N[C@H](C(=O)N[C@@H](CCCCN)C(=O)N[C@H](C(=O)N[C@@H](C)C(=O)N[C@@H](CCCCN)C(N)=O)C(C)C)[C@@H](C)CC)[C@@H](C)CC [VNWKKILAKIIKVAK] | 0.7 µM (≈ 1.23 µg/mL) | 0.7 µM (≈ 1.23 µg/mL) | 22.5 µM (≈ 39.4 µg/mL) | 4.3 µM (≈ 7.53 µg/mL) | – | – | – | – | – | – | – | –
3 | CC[C@H](C)[C@H](NC(=O)[C@H](CO)NC(=O)[C@H](C)NC(=O)[C@@H](NC(=O)[C@H](CCCCN)NC(=O)[C@H](CCCCN)NC(=O)[C@@H](N)Cc1c[nH]c2ccccc12)[C@@H](C)CC)C(=O)NCC(=O)N[C@@H](CCCCN)C(=O)N[C@@H](CCC(=O)O)C(=O)N[C@H](C(=O)N[C@@H](CC(C)C)C(=O)N[C@@H](CCCCN)C(=O)N[C@@H](C)C(=O)N[C@@H](CC(C)C)C(N)=O)C(C)C [WKKIASIGKEVLKAL] | – | – | – | – | ≥ 125 µM | 62 µM (≈ 104 µg/mL) | – | – | – | – | – | –
4 | CC(C)C[C@H](NC(=O)[C@H](Cc1ccccc1)NC(=O)[C@H](CCCCN)NC(=O)[C@H](Cc1c[nH]c2ccccc12)NC(=O)[C@H](Cc1c[nH]c2ccccc12)NC(=O)[C@H](Cc1c[nH]c2ccccc12)NC(=O)[C@H](CCCCN)NC(=O)[C@H](Cc1ccccc1)NC(=O)[C@H](CCCN=C(N)N)NC(=O)[C@H](CCCN=C(N)N)NC(=O)[C@@H](N)C(C)C)C(=O)N[C@@H](CCCN=C(N)N)C(=O)N[C@@H](CCCN=C(N)N)C(N)=O [VRRFKWWWKFLRR] | – | – | – | – | – | – | 0.5 µM (≈ 0.982 µg/mL) | 2 µM (≈ 3.93 µg/mL) | 4 µM (≈ 7.85 µg/mL) | 2 µM (≈ 3.93 µg/mL) | 1 µM (≈ 1.96 µg/mL) | 0.5 µM (≈ 0.982 µg/mL)
5 | CC[C@H](C)[C@H](N)C(=O)NCC(=O)N[C@@H](CCCCN)C(=O)N[C@@H](CCCCN)C(=O)N[C@@H](Cc1ccccc1)C(=O)N[C@@H](CCCCN)C(=O)N[C@@H](CCCN=C(N)N)C(=O)N[C@H](C(=O)N[C@H](C(=O)N[C@@H](CCC(N)=O)C(=O)N[C@@H](CCCN=C(N)N)C(=O)N[C@H](C(=O)N[C@@H](CCCCN)C(=O)N[C@@H](CCCCN)C(=O)N[C@@H](Cc1ccccc1)C(=O)N[C@@H](CC(C)C)C(=O)N[C@@H](CCCN=C(N)N)C(=O)N[C@@H](CC(N)=O)C(=O)N[C@@H](CC(C)C)C(=O)O)[C@@H](C)CC)C(C)C)[C@@H](C)CC [IGKKFKRIVQRIKKFLRNL] | – | – | – | – | – | – | 2 µM (≈ 4.77 µg/mL) | 8 µM (≈ 19.1 µg/mL) | 8 µM (≈ 19.1 µg/mL) | 8 µM (≈ 19.1 µg/mL) | 4 µM (≈ 9.54 µg/mL) | 2 µM (≈ 4.77 µg/mL)
6 | CC[C@H](C)[C@H](NC(=O)[C@H](CO)NC(=O)[C@H](CC(C)C)NC(=O)[C@H](Cc1ccccc1)NC(=O)CN)C(=O)N[C@@H](CC(C)C)C(=O)N[C@@H](CCCCN)C(=O)N[C@@H](CCCCN)C(=O)N[C@H](C(=O)N[C@@H](CC(C)C)C(=O)NCC(=O)N[C@@H](CCCCN)C(=O)N[C@H](C(=O)N[C@@H](CCSC)C(=O)N[C@@H](C)C(=O)N[C@@H](Cc1cnc[nH]1)C(=O)N[C@@H](CCSC)C(=O)N[C@@H](CCCCN)C(N)=O)C(C)C)C(C)C [GFLSILKKVLGKVMAHMK] | 1.3 µM (≈ 2.6 µg/mL) | 1.8 µM (≈ 3.6 µg/mL) | 14.4 µM (≈ 28.8 µg/mL) | 4.3 µM (≈ 8.6 µg/mL) | – | – | – | – | – | – | – | –
7 | CC[C@H](C)[C@H](NC(=O)[C@H](CCCCN)NC(=O)[C@H](CO)NC(=O)[C@H](Cc1c[nH]c2ccccc12)NC(=O)[C@H](CCSC)NC(=O)CN)C(=O)N[C@@H](CC(C)C)C(=O)NCC(=O)N[C@@H](Cc1cnc[nH]1)C(=O)N[C@@H](CC(C)C)C(N)=O [GMWSKILGHL] | 22.5 µM (≈ 25.7 µg/mL) | ≥ 100 µM | > 100 µM | > 100 µM | – | – | – | – | – | – | – | –
8 | CC[C@H](C)[C@H](N)C(=O)NCC(=O)N[C@@H](CCCCN)C(=O)N[C@@H](CCCCN)C(=O)N[C@@H](Cc1ccccc1)C(=O)N[C@@H](CCCCN)C(=O)N[C@@H](CCCN=C(N)N)C(=O)N[C@H](C(=O)N[C@H](C(=O)N[C@@H](CCC(N)=O)C(=O)N[C@@H](CCCN=C(N)N)C(=O)N[C@H](C(=O)N[C@@H](CCCCN)C(=O)N[C@@H](CC(=O)O)C(=O)N[C@@H](Cc1ccccc1)C(=O)N[C@@H](CC(C)C)C(=O)N[C@@H](CCCN=C(N)N)C(=O)N[C@@H](CC(N)=O)C(=O)N[C@@H](CC(C)C)C(=O)O)[C@@H](C)CC)C(C)C)[C@@H](C)CC [IGKKFKRIVQRIKDFLRNL] | – | – | – | – | – | – | 2 µM (≈ 4.75 µg/mL) | 8 µM (≈ 19 µg/mL) | 8 µM (≈ 19 µg/mL) | 2 µM (≈ 4.75 µg/mL) | 4 µM (≈ 9.49 µg/mL) | 2 µM (≈ 4.75 µg/mL)
9 | CC[C@H](C)[C@H](NC(=O)[C@H](CCCCN)NC(=O)[C@H](CC(C)C)NC(=O)[C@H](CC(C)C)NC(=O)[C@@H](N)CCCCN)C(=O)N[C@@H](Cc1c[nH]c2ccccc12)C(=O)N[C@@H](Cc1c[nH]c2ccccc12)C(=O)N[C@H](C(=O)N[C@@H](CCCCN)C(=O)N[C@H](C(=O)N[C@@H](CC(C)C)C(=O)N[C@@H](CCCCN)C(N)=O)C(C)C)[C@@H](C)CC [KLLKIWWIKVLK] | – | – | – | – | – | – | 7.97 µM (≈ 12.5 µg/mL) | 7.97 µM (≈ 12.5 µg/mL) | 3.99 µM (≈ 6.25 µg/mL) | 2 µM (≈ 3.13 µg/mL) | 7.97 µM (≈ 12.5 µg/mL) | 3.99 µM (≈ 6.25 µg/mL)
10 | CC[C@H](C)[C@H](NC(=O)[C@H](CCCCN)NC(=O)[C@H](CCCCN)NC(=O)[C@H](Cc1c[nH]c2ccccc12)NC(=O)[C@@H](NC(=O)[C@@H](N)CC(N)=O)C(C)C)C(=O)N[C@@H](CC(C)C)C(=O)NCC(=O)N[C@@H](CCCCN)C(=O)N[C@H](C(=O)N[C@H](C(=O)N[C@@H](CCCCN)C(=O)N[C@H](C(=O)N[C@@H](C)C(=O)N[C@@H](CCCCN)C(N)=O)C(C)C)[C@@H](C)CC)[C@@H](C)CC [NVWKKILGKIIKVAK] | 0.7 µM (≈ 1.22 µg/mL) | 1.1 µM (≈ 1.91 µg/mL) | 23.3 µM (≈ 40.5 µg/mL) | 19.7 µM (≈ 34.2 µg/mL) | – | – | – | – | – | – | – | –
11 | CC[C@H](C)[C@H](N)C(=O)N[C@@H](CC(C)C)C(=O)N1CCC[C@H]1C(=O)N[C@@H](Cc1c[nH]c2ccccc12)C(=O)N[C@@H](CCCCN)C(=O)N[C@@H](Cc1c[nH]c2ccccc12)C(=O)N[C@@H](CCCCN)C(=O)N[C@@H](Cc1c[nH]c2ccccc12)C(=O)N[C@@H](Cc1c[nH]c2ccccc12)C(=O)N[C@@H](CCCCN)C(=O)N[C@@H](Cc1c[nH]c2ccccc12)C(=O)N[C@@H](CCCN=C(N)N)C(=O)N[C@@H](CCCN=C(N)N)C(N)=O [ILPWKWKWWKWRR] | – | – | – | – | – | – | 2.54 µM (≈ 5 µg/mL) | 5.08 µM (≈ 10 µg/mL) | 5.08 µM (≈ 10 µg/mL) | 5.08 µM (≈ 10 µg/mL) | 2.54 µM (≈ 5 µg/mL) | 5.08 µM (≈ 10 µg/mL)
12 | CC[C@H](C)[C@H](NC(=O)[C@H](Cc1cnc[nH]1)NC(=O)[C@H](CCCCN)NC(=O)[C@H](CC(C)C)NC(=O)[C@H](CC(C)C)NC(=O)[C@H](CO)NC(=O)[C@H](CCSC)NC(=O)[C@H](Cc1c[nH]c2ccccc12)NC(=O)[C@H](CCCCN)NC(=O)[C@@H](N)CCCCN)C(=O)N[C@@H](CC(C)C)C(=O)N[C@@H](CCCCN)C(N)=O [KKWMSLLKHILK] | 1.1 µM (≈ 1.68 µg/mL) | 3 µM (≈ 4.57 µg/mL) | 25 µM (≈ 38.1 µg/mL) | 28.3 µM (≈ 43.1 µg/mL) | – | – | – | – | – | – | – | –
13 | CC[C@H](C)[C@H](NC(=O)[C@H](CO)NC(=O)[C@H](CC(C)C)NC(=O)[C@H](Cc1ccccc1)NC(=O)CN)C(=O)N[C@@H](CC(C)C)C(=O)N[C@@H](CCCCN)C(=O)N[C@@H](CCCCN)C(=O)N[C@H](C(=O)N[C@@H](CC(C)C)C(=O)N[C@@H](CCCCN)C(=O)N[C@@H](CCCCN)C(=O)N[C@H](C(=O)N[C@@H](CCSC)C(=O)N[C@@H](C)C(=O)N[C@@H](Cc1cnc[nH]1)C(=O)N[C@@H](CCSC)C(=O)N[C@@H](CCCCN)C(N)=O)C(C)C)C(C)C [GFLSILKKVLKKVMAHMK] | 1.4 µM (≈ 2.9 µg/mL) | 1.8 µM (≈ 3.73 µg/mL) | 25.3 µM (≈ 52.4 µg/mL) | 13.8 µM (≈ 28.6 µg/mL) | – | – | – | – | – | – | – | –
14 | CSCC[C@H](NC(=O)[C@H](Cc1cnc[nH]1)NC(=O)[C@H](C)NC(=O)[C@H](CCSC)NC(=O)[C@@H](NC(=O)[C@@H](N)CCCCN)C(C)C)C(=O)N[C@@H](CCCCN)C(N)=O [KVMAHMK] | ≥ 100 µM | ≥ 100 µM | – | – | – | – | – | – | – | – | – | –
15 | CC[C@H](C)[C@H](N)C(=O)NCC(=O)N[C@@H](CCCCN)C(=O)N[C@@H](CC(C)C)C(=O)N[C@@H](Cc1ccccc1)C(=O)N[C@@H](CCCCN)C(=O)N[C@@H](CCCN=C(N)N)C(=O)N[C@H](C(=O)N[C@H](C(=O)N[C@@H](CCC(N)=O)C(=O)N[C@@H](CCCN=C(N)N)C(=O)N[C@H](C(=O)N[C@@H](CCCCN)C(=O)N[C@@H](CCCCN)C(=O)N[C@@H](Cc1ccccc1)C(=O)N[C@@H](CC(C)C)C(=O)N[C@@H](CCCN=C(N)N)C(=O)N[C@@H](CC(N)=O)C(=O)N[C@@H](CC(C)C)C(=O)O)[C@@H](C)CC)C(C)C)[C@@H](C)CC [IGKLFKRIVQRIKKFLRNL] | – | – | – | – | – | – | 4 µM (≈ 9.48 µg/mL) | 8 µM (≈ 19 µg/mL) | 8 µM (≈ 19 µg/mL) | 4 µM (≈ 9.48 µg/mL) | 8 µM (≈ 19 µg/mL) | 4 µM (≈ 9.48 µg/mL)
